Laboratory results reported in US20230345946A1, “ANTIVIRAL SURFACES COMPRISING POLYOXOMETALATES AND ZINC MOLYBDATE” (FRIDA GROUP APS, priority 2020, published 2023).

Key:
coronaviruses [1] = experiment: EN 14476 (Liquid Disinfectant Test); conditions: in 2 hours
coronaviruses [2] = experiment: Killing of coronaviruses on treated surfaces versus a control surface; conditions: in 2 hours
Procedure: 88% more coronaviruses were killed on the treated surfaces than on a control surface, also in 2 hours.

Paramolybdotungstate [Paramolybdotungstate Mo:W 1:1]
log reduction of coronaviruses (coronaviruses [1]): 4 log
more coronaviruses killed on treated surfaces than on a control surface (coronaviruses [2]): 88%
